{"source": "PubChem BioAssay (NCI)", "test_in_all_cases": "DTP human tumour cell line panel, 48 h", "key": {"CAKI-1 renal": {"test_system": "CAKI-1 renal"}, "OVCAR-8 ovarian": {"test_system": "OVCAR-8 ovarian"}, "PC-3 prostate": {"test_system": "PC-3 prostate"}, "SNB-75 CNS": {"test_system": "SNB-75 CNS"}, "U251 CNS": {"test_system": "U251 CNS"}, "SNB-19 CNS": {"test_system": "SNB-19 CNS"}, "HOP-92 NSCLC": {"test_system": "HOP-92 NSCLC"}, "HT29 colon": {"test_system": "HT29 colon"}, "SR leukemia": {"test_system": "SR leukemia"}, "HOP-62 NSCLC": {"test_system": "HOP-62 NSCLC"}, "T-47D breast": {"test_system": "T-47D breast"}, "CCRF-CEM leukemia": {"test_system": "CCRF-CEM leukemia"}, "ACHN renal": {"test_system": "ACHN renal"}, "UACC-257 melanoma": {"test_system": "UACC-257 melanoma"}, "OVCAR-4 ovarian": {"test_system": "OVCAR-4 ovarian"}, "M14 melanoma": {"test_system": "M14 melanoma"}, "SW-620 colon": {"test_system": "SW-620 colon"}, "KM12 colon": {"test_system": "KM12 colon"}, "HS 578T breast": {"test_system": "HS 578T breast"}, "SK-MEL-5 melanoma": {"test_system": "SK-MEL-5 melanoma"}, "RPMI-8226 leukemia": {"test_system": "RPMI-8226 leukemia"}, "K-562 leukemia": {"test_system": "K-562 leukemia"}, "DU-145 prostate": {"test_system": "DU-145 prostate"}, "BT-549 breast": {"test_system": "BT-549 breast"}, "SN12C renal": {"test_system": "SN12C renal"}, "HCC-2998 colon": {"test_system": "HCC-2998 colon"}, "A549 NSCLC": {"test_system": "A549 NSCLC"}, "MCF7 breast": {"test_system": "MCF7 breast"}, "NCI-H23 lung": {"test_system": "NCI-H23 lung"}}, "note": "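Results reflect a 48-hour exposure of cells in 96-well plates to compound at five concentrations. GI50 marks 50% less growth. TGI denotes the concentration required for complete inhibition of growth.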", "data": [{"smiles": "CC(=O)O[C@H]1C(=O)[C@@]2(C)[C@H]([C@H](OC(=O)c3ccccc3)[C@]3(O)C[C@H](OC(=O)[C@H](OC(=O)OC[C@@H]4COC(C)(C)O4)[C@@H](NC(=O)c4ccccc4)c4ccccc4)C(C)=C1C3(C)C)[C@]1(OC(C)=O)CO[C@@H]1C[C@@H]2O", "values": [{"measurement": "TGI", "setting": "CAKI-1 renal", "value": "> 33300", "unit": "nM"}, {"measurement": "GI50", "setting": "OVCAR-8 ovarian", "value": 85.7, "unit": "nM"}, {"measurement": "TGI", "setting": "OVCAR-8 ovarian", "value": "> 33300", "unit": "nM"}, {"measurement": "GI50", "setting": "PC-3 prostate", "value": 45.1, "unit": "nM"}, {"measurement": "TGI", "setting": "PC-3 prostate", "value": "> 33300", "unit": "nM"}, {"measurement": "GI50", "setting": "SNB-75 CNS", "value": 4.11, "unit": "nM"}, {"measurement": "TGI", "setting": "SNB-75 CNS", "value": 137, "unit": "nM"}, {"measurement": "GI50", "setting": "U251 CNS", "value": 40.9, "unit": "nM"}, {"measurement": "TGI", "setting": "U251 CNS", "value": "> 33300", "unit": "nM"}, {"measurement": "GI50", "setting": "SNB-19 CNS", "value": 92.3, "unit": "nM"}, {"measurement": "TGI", "setting": "SNB-19 CNS", "value": "> 33300", "unit": "nM"}, {"measurement": "GI50", "setting": "HOP-92 NSCLC", "value": 53.2, "unit": "nM"}, {"measurement": "TGI", "setting": "HOP-92 NSCLC", "value": "> 33300", "unit": "nM"}, {"measurement": "GI50", "setting": "HT29 colon", "value": 10.4, "unit": "nM"}, {"measurement": "TGI", "setting": "HT29 colon", "value": "> 33300", "unit": "nM"}, {"measurement": "GI50", "setting": "SR leukemia", "value": 31.2, "unit": "nM"}, {"measurement": "TGI", "setting": "SR leukemia", "value": "> 33300", "unit": "nM"}, {"measurement": "GI50", "setting": "HOP-62 NSCLC", "value": 119, "unit": "nM"}, {"measurement": "TGI", "setting": "HOP-62 NSCLC", "value": "> 33300", "unit": "nM"}, {"measurement": "GI50", "setting": "T-47D breast", "value": 63.1, "unit": "nM"}, {"measurement": "TGI", "setting": "T-47D breast", "value": "> 33300", "unit": "nM"}, {"measurement": "GI50", "setting": "CCRF-CEM leukemia", "value": 40.2, "unit": "nM"}, {"measurement": "TGI", "setting": "CCRF-CEM leukemia", "value": "> 33300", "unit": "nM"}, {"measurement": "GI50", "setting": "ACHN renal", "value": 1040, "unit": "nM"}, {"measurement": "TGI", "setting": "ACHN renal", "value": "> 33300", "unit": "nM"}, {"measurement": "GI50", "setting": "UACC-257 melanoma", "value": "> 7380", "unit": "nM"}, {"measurement": "TGI", "setting": "UACC-257 melanoma", "value": "> 33300", "unit": "nM"}, {"measurement": "GI50", "setting": "OVCAR-4 ovarian", "value": "> 33300", "unit": "nM"}, {"measurement": "TGI", "setting": "OVCAR-4 ovarian", "value": "> 33300", "unit": "nM"}, {"measurement": "GI50", "setting": "M14 melanoma", "value": 26.8, "unit": "nM"}, {"measurement": "TGI", "setting": "M14 melanoma", "value": 233, "unit": "nM"}, {"measurement": "GI50", "setting": "SW-620 colon", "value": 21.3, "unit": "nM"}, {"measurement": "TGI", "setting": "SW-620 colon", "value": "> 33300", "unit": "nM"}, {"measurement": "GI50", "setting": "KM12 colon", "value": 19.6, "unit": "nM"}, {"measurement": "TGI", "setting": "KM12 colon", "value": "> 33300", "unit": "nM"}, {"measurement": "GI50", "setting": "HS 578T breast", "value": 25.6, "unit": "nM"}, {"measurement": "TGI", "setting": "HS 578T breast", "value": 1160, "unit": "nM"}, {"measurement": "GI50", "setting": "SK-MEL-5 melanoma", "value": 147, "unit": "nM"}, {"measurement": "TGI", "setting": "SK-MEL-5 melanoma", "value": "> 33300", "unit": "nM"}, {"measurement": "GI50", "setting": "RPMI-8226 leukemia", "value": 9.35, "unit": "nM"}, {"measurement": "TGI", "setting": "RPMI-8226 leukemia", "value": "> 33300", "unit": "nM"}, {"measurement": "GI50", "setting": "K-562 leukemia", "value": 17.6, "unit": "nM"}, {"measurement": "TGI", "setting": "K-562 leukemia", "value": "> 33300", "unit": "nM"}, {"measurement": "GI50", "setting": "DU-145 prostate", "value": 42.4, "unit": "nM"}, {"measurement": "TGI", "setting": "DU-145 prostate", "value": "> 33300", "unit": "nM"}, {"measurement": "GI50", "setting": "BT-549 breast", "value": 120, "unit": "nM"}, {"measurement": "TGI", "setting": "BT-549 breast", "value": "> 33300", "unit": "nM"}, {"measurement": "GI50", "setting": "SN12C renal", "value": 60, "unit": "nM"}, {"measurement": "TGI", "setting": "SN12C renal", "value": "> 33300", "unit": "nM"}, {"measurement": "GI50", "setting": "HCC-2998 colon", "value": 96.9, "unit": "nM"}, {"measurement": "TGI", "setting": "HCC-2998 colon", "value": "> 33300", "unit": "nM"}, {"measurement": "GI50", "setting": "A549 NSCLC", "value": 48.8, "unit": "nM"}, {"measurement": "TGI", "setting": "A549 NSCLC", "value": "> 33300", "unit": "nM"}, {"measurement": "GI50", "setting": "MCF7 breast", "value": 9.71, "unit": "nM"}, {"measurement": "TGI", "setting": "MCF7 breast", "value": "> 33300", "unit": "nM"}, {"measurement": "GI50", "setting": "NCI-H23 lung", "value": 72.6, "unit": "nM"}, {"measurement": "TGI", "setting": "NCI-H23 lung", "value": "> 33300", "unit": "nM"}]}]}
